ChEMBL document CHEMBL5303573, “Mapping human microbiome drug metabolism by gut bacteria and their genes” (Nature, 2019)
Non-standard residues stand in square brackets, D forms with d. Residues, ends and D or L forms follow the SMILES beside them. pGlu = O=C1CC[C@@H](C(=O)O)N1; Thz = O=C(O)[C@@H]1CSCN1

How the values were obtained:
[1] = The drug is tested on Bifidobacterium ruminantium strain: fecal isolate for biotransformation. The drug concentrations were measured before and after a 12-h incubation by liquid-chromatography-coupled mass spectrometry (LC–MS); conditions: 2 µM
[2] = The drug is tested on Odoribacter splanchnicus strain: fecal isolate for biotransformation. The drug concentrations were measured before and after a 12-h incubation by liquid-chromatography-coupled mass spectrometry (LC–MS); conditions: 2 µM
[3] = The drug is tested on Ruminococcus torques strain: ATCC27756 for biotransformation. The drug concentrations were measured before and after a 12-h incubation by liquid-chromatography-coupled mass spectrometry (LC–MS); assay type: ADME; parameters: dose 2 uM, timepoint 0 vs 12 hours; conditions: 2 µM
[4] = The drug is tested on Coprococcus comes strain: ATCC27758 for biotransformation. The drug concentrations were measured before and after a 12-h incubation by liquid-chromatography-coupled mass spectrometry (LC–MS); assay type: ADME; parameters: dose 2 uM, timepoint 0 vs 12 hours; conditions: 2 µM
[5] = The drug is tested on Collinsella aerofaciens strain: ATCC25986 for biotransformation. The drug concentrations were measured before and after a 12-h incubation by liquid-chromatography-coupled mass spectrometry (LC–MS); conditions: 2 µM
[6] = The drug is tested on Enterobacter cancerogenus strain: ATCC35316 for biotransformation. The drug concentrations were measured before and after a 12-h incubation by liquid-chromatography-coupled mass spectrometry (LC–MS); conditions: 2 µM
[7] = The drug is tested on Alistipes indistinctus strain: DSM22520 for biotransformation. The drug concentrations were measured before and after a 12-h incubation by liquid-chromatography-coupled mass spectrometry (LC–MS); conditions: 2 µM
[8] = The drug is tested on Bacteroides uniformis strain: ATCC8492 for biotransformation. The drug concentrations were measured before and after a 12-h incubation by liquid-chromatography-coupled mass spectrometry (LC–MS); conditions: 2 µM
[9] = bacteroides thetaiotaomicron, 12 h, 2 µM
Description: The drug is tested on Bacteroides thetaiotaomicron strain: 7330 for biotransformation. The drug concentrations were measured before and after a 12-h incubation by liquid-chromatography-coupled mass spectrometry (LC–MS)

[10] = The drug is tested on Bacteroides ovatus strain: ATCC8483 for biotransformation. The drug concentrations were measured before and after a 12-h incubation by liquid-chromatography-coupled mass spectrometry (LC–MS); conditions: 2 µM
[11] = The drug is tested on Bacteroides finegoldii strain: DSM17565 for biotransformation. The drug concentrations were measured before and after a 12-h incubation by liquid-chromatography-coupled mass spectrometry (LC–MS); conditions: 2 µM
[12] = The drug is tested on Clostridium asparagiforme strain: DSM15981 for biotransformation. The drug concentrations were measured before and after a 12-h incubation by liquid-chromatography-coupled mass spectrometry (LC–MS); assay type: ADME; parameters: dose 2 uM, timepoint 0 vs 12 hours; conditions: enterocloster asparagiformis, 2 µM
[13] = The drug is tested on Dorea formicigenerans strain: ATCC27755 for biotransformation. The drug concentrations were measured before and after a 12-h incubation by liquid-chromatography-coupled mass spectrometry (LC–MS); conditions: 2 µM
[14] = The drug is tested on Enterococcus faecalis strain: V583 for biotransformation. The drug concentrations were measured before and after a 12-h incubation by liquid-chromatography-coupled mass spectrometry (LC–MS); conditions: 2 µM
[15] = The drug is tested on Bacteroides coprophilus strain: DSM18228 for biotransformation. The drug concentrations were measured before and after a 12-h incubation by liquid-chromatography-coupled mass spectrometry (LC–MS); conditions: 2 µM
[16] = The drug is tested on Anaerotruncus colihominis strain: DSM17241 for biotransformation. The drug concentrations were measured before and after a 12-h incubation by liquid-chromatography-coupled mass spectrometry (LC–MS); conditions: 2 µM
[17] = limosilactobacillus reuteri cf48-3a, 12 h, 2 µM
Description: The drug is tested on Lactobacillus reuteri CF48-3A strain: BEI HM-102 for biotransformation. The drug concentrations were measured before and after a 12-h incubation by liquid-chromatography-coupled mass spectrometry (LC–MS)

[18] = The drug is tested on Parabacteroides merdae strain: ATCC43184 for biotransformation. The drug concentrations were measured before and after a 12-h incubation by liquid-chromatography-coupled mass spectrometry (LC–MS); conditions: 2 µM
[19] = The drug is tested on Bacteroides caccae strain: ATCC43185 for biotransformation. The drug concentrations were measured before and after a 12-h incubation by liquid-chromatography-coupled mass spectrometry (LC–MS); conditions: 2 µM
[20] = The drug is tested on Clostridium sporogenes strain: ATCC15579 for biotransformation. The drug concentrations were measured before and after a 12-h incubation by liquid-chromatography-coupled mass spectrometry (LC–MS); conditions: 2 µM

Bacterial Biotransformation [1]	Bacterial Biotransformation [2]	Bacterial Biotransformation [3]	Bacterial Biotransformation [4]	Bacterial Biotransformation [5]	Bacterial Biotransformation [6]	Bacterial Biotransformation [7]	Bacterial Biotransformation [8]	Bacterial Biotransformation [9]	Bacterial Biotransformation [10]	Bacterial Biotransformation [11]	Bacterial Biotransformation [12]	Bacterial Biotransformation [13]	Bacterial Biotransformation [14]	Bacterial Biotransformation [15]	Bacterial Biotransformation [16]	Bacterial Biotransformation [17]	Bacterial Biotransformation [18]	Bacterial Biotransformation [19]	Bacterial Biotransformation [20]	SMILES
Compound NOT metabolized	Compound metabolized	Compound NOT metabolized	Compound NOT metabolized	Compound NOT metabolized	Compound NOT metabolized	Compound NOT metabolized	Compound metabolized	Compound metabolized	Compound metabolized	Compound NOT metabolized	Compound NOT metabolized	Compound NOT metabolized								CCCc1nc2c(C)cc(-c3nc4ccccc4n3C)cc2n1Cc1ccc(-c2ccccc2C(=O)O)cc1
	Compound metabolized		Compound NOT metabolized		Compound NOT metabolized	Compound NOT metabolized		Compound metabolized		Compound NOT metabolized	Compound NOT metabolized	Compound NOT metabolized	Compound NOT metabolized	Compound metabolized	Compound NOT metabolized	Compound NOT metabolized				CC(=O)OCC(=O)[C@@]1(O)[C@@H](C)C[C@H]2[C@@H]3CCC4=CC(=O)C=C[C@]4(C)[C@@]3(F)[C@@H](O)C[C@@]21C [BETAMETHASONE ACETATE]
Compound NOT metabolized	Compound NOT metabolized	Compound NOT metabolized	Compound NOT metabolized	Compound NOT metabolized	Compound NOT metabolized	Compound NOT metabolized	Compound metabolized	Compound metabolized	Compound metabolized		Compound NOT metabolized	Compound NOT metabolized	Compound NOT metabolized	Compound metabolized	Compound NOT metabolized					O=C1CC[C@@H](C(=O)N2CSC[C@H]2C(=O)O)N1 [PIDOTIMOD] ([pGlu]-[Thz]-OH)
Compound NOT metabolized	Compound NOT metabolized	Compound NOT metabolized	Compound NOT metabolized	Compound NOT metabolized	Compound NOT metabolized	Compound NOT metabolized	Compound NOT metabolized	Compound NOT metabolized	Compound NOT metabolized		Compound NOT metabolized	Compound NOT metabolized		Compound NOT metabolized	Compound NOT metabolized	Compound NOT metabolized	Compound NOT metabolized	Compound NOT metabolized		O=C([O-])C[C@H](O)C[C@H](O)/C=C/c1c(C2CC2)nc2ccccc2c1-c1ccc(F)cc1.O=C([O-])C[C@H](O)C[C@H](O)/C=C/c1c(C2CC2)nc2ccccc2c1-c1ccc(F)cc1.[Ca+2] [PITAVASTATIN CALCIUM]
	Compound NOT metabolized	Compound NOT metabolized	Compound NOT metabolized	Compound NOT metabolized	Compound NOT metabolized	Compound NOT metabolized	Compound NOT metabolized	Compound NOT metabolized	Compound NOT metabolized	Compound NOT metabolized	Compound NOT metabolized	Compound NOT metabolized	Compound NOT metabolized	Compound NOT metabolized	Compound NOT metabolized	Compound NOT metabolized	Compound NOT metabolized	Compound NOT metabolized	Compound NOT metabolized	CNNCc1ccc(C(=O)NC(C)C)cc1 [PROCARBAZINE]
Compound NOT metabolized	Compound NOT metabolized	Compound NOT metabolized	Compound NOT metabolized	Compound NOT metabolized	Compound NOT metabolized	Compound NOT metabolized	Compound NOT metabolized	Compound NOT metabolized	Compound NOT metabolized	Compound NOT metabolized	Compound NOT metabolized	Compound NOT metabolized		Compound NOT metabolized	Compound NOT metabolized	Compound NOT metabolized	Compound NOT metabolized	Compound NOT metabolized		CN1[C@@H]2CC[C@H]1C[C@@H](OC(=O)c1c[nH]c3ccccc13)C2 [TROPISETRON]
	Compound NOT metabolized	Compound NOT metabolized	Compound metabolized		Compound NOT metabolized	Compound NOT metabolized		Compound NOT metabolized	Compound NOT metabolized	Compound NOT metabolized	Compound NOT metabolized		Compound NOT metabolized	Compound NOT metabolized		Compound NOT metabolized	Compound NOT metabolized	Compound NOT metabolized	Compound metabolized	Cc1cn([C@H]2C[C@H](N=[N+]=[N-])[C@@H](CO)O2)c(=O)[nH]c1=O [ZIDOVUDINE]

SMILES	Bacterial Biotransformation [1]	Bacterial Biotransformation [2]	Bacterial Biotransformation [3]	Bacterial Biotransformation [4]	Bacterial Biotransformation [5]	Bacterial Biotransformation [6]	Bacterial Biotransformation [7]	Bacterial Biotransformation [8]	Bacterial Biotransformation [9]	Bacterial Biotransformation [10]	Bacterial Biotransformation [11]	Bacterial Biotransformation [12]	Bacterial Biotransformation [13]	Bacterial Biotransformation [14]	Bacterial Biotransformation [15]	Bacterial Biotransformation [16]	Bacterial Biotransformation [17]	Bacterial Biotransformation [18]	Bacterial Biotransformation [19]	Bacterial Biotransformation [20]
O=C(CCCN1CCC2(CC1)C(=O)NCN2c1ccccc1)c1ccc(F)cc1 [SPIPERONE]	Compound NOT metabolized		Compound NOT metabolized		Compound NOT metabolized	Compound NOT metabolized	Compound NOT metabolized	Compound NOT metabolized		Compound NOT metabolized	Compound NOT metabolized	Compound NOT metabolized	Compound NOT metabolized	Compound NOT metabolized	Compound NOT metabolized		Compound NOT metabolized	Compound NOT metabolized	Compound NOT metabolized	
CS(=O)(=O)O.O.O.O.O=C1Cc2cc(CCN3CCN(c4nsc5ccccc45)CC3)c(Cl)cc2N1 [ZIPRASIDONE MESYLATE]	Compound NOT metabolized		Compound NOT metabolized	Compound NOT metabolized	Compound NOT metabolized	Compound NOT metabolized	Compound metabolized	Compound NOT metabolized	Compound NOT metabolized	Compound metabolized	Compound NOT metabolized	Compound NOT metabolized	Compound NOT metabolized	Compound NOT metabolized	Compound NOT metabolized		Compound NOT metabolized	Compound NOT metabolized	Compound NOT metabolized	
